Common to all, as to assay type: physicochemical
Series [1] in a line: Turbidity (solution absorbance at 600 nm). The note with it: vitamin D 82.5 μg/ml, in the absence of beta-casein, pH 7.0 and 2.5.
Series [2] in a line: Vitamin D stability in aqueous solution, n-hexane extraction and Reversed Phase HPLC. The note with it: pH 7 and pH 2.5, room temperature. As for the experimental part:
We further tested the stability of vitamin D:beta-casein solutions in both acidic and neutral pH environments. The solutions prepared were left for a week at room temperature and the sampling was made once a day (in the first three days of the experiment) and once every two days (toward the end of the experiment). Vitamin D was extracted by n-hexane from each sample and its amount was analyzed using Reversed Phase HPLC. The amount of the vitamin left was compared to the amount extracted at time 0. The experiment was performed at two different pH values (pH 7 and pH 2.5).

Series [3] can be described thus: Visual comparison of vitamin D solubilization, clarity and precipitation with and without beta-casein.

Regarding `C=C1CC[C@H](O)C/C1=C/C=C1\CCC[C@]2(C)[C@@H]([C@H](C)/C=C/[C@H](C)C(C)C)CC[C@@H]12` [vitamin D, ergocalciferol], the turbidity entry in series [1] is recorded as “sudden increase in turbidity value”. Further, the “vitamin D stability (amount left versus time 0)” value in series [2] (in the presence of beta-casein, one week) is reported as “degradation process is much slower”; in series [2] (vitamin D alone, aqueous solution), “degrades rapidly leaving almost no trace after only two days”. Besides, the precipitation entry is given as “not observed” in series [3] (PBS, in the absence of beta-casein, after a week); “not observed” in series [3] (PBS, in the presence of beta-casein, after a week); “not observed” in series [3] (lactic acid buffer pH 2.5 with beta-casein 0.5% wt, molar ratio 2:1, after a week). Also, the “aggregation out of solution” value in series [3] (lactic acid buffer pH 2.5, no beta-casein, after a week) is given as “white precipitation”.

The values above are taken from patent publication US8865222B2, “Beta-casein assemblies for enrichment of food and beverages and methods of preparation thereof” (Technion Research and Development Foundation Ltd., priority 2008, dated 2014).
